This is an account of results in US9340574B2, “Inhibitors of protein tyrosine phosphatases” (Indiana University Research and Technology Corporation, priority 2012, dated 2016).

Bounds are passed on as bounds.

One series deals with FAP1 (Homo sapiens (Human), UniProt Q12923). The series can be described thus: pNPP hydrolysis enzyme assay, FAP1. In kind it is biochemical. The method, then:
Enzyme kinetic assay. PTP activity was assayed using p-nitrophenyl phosphate (pNPP) as a substrate in 3,3-dimethylglutarate buffer (50 mM 3,3-dimethylglutarate, pH 7.0, 1 mM EDTA, 150 mM NaCl, 2 mM DTT, 0.1 mg/mL BSA) at 25° C. The assays were performed in 96-well plates. Normally, to determine the IC50 values, the reaction was initiated by the addition of enzyme (final concentration at 10 nM) to a reaction mixture (0.2 mL) containing 2 mM (Km for the substrate) pNPP with various concentrations of inhibitors. The reaction rate was measured using a SpectraMax Plus 384 Microplate Spectrophotometer (Molecular Devices). To determine the mode of inhibition, the reactions were initiated by the addition of PTP-MEG2 to the reaction mixtures (0.2 mL) containing various concentrations of pNPP with different concentrations of the inhibitor 7. Data were fitted using SigmaPlot Enzyme Kinetics Module (Systat Software, Inc.).

The test system of series [1] is insulin signaling in mouse primary hepatocytes. The series can be described thus: Insulin signaling in mouse primary hepatocytes (Western blot). In kind it is cell-based. The conditions noted are these: for increase of phosphorylated IR (Tyr1162/1163): 1 hour pretreatment, 5 nM insulin 5 minutes, vs DMSO. The method, then:
FIGS. 4A-B depict the ability of PTP-MEG2 inhibitor Compound 7 to sensitize insulin signaling in primary hepatocytes. […] Mouse primary hepatocytes were cultured in 0.5% FBS DMEM medium overnight. Prior to insulin stimulation, the cells were pretreated with Compound 7 or 8 for 1 hour. Then the cells were stimulated with 5 nM insulin for 5 minutes. Insulin signaling was analyzed by Western Blots using phospho-specific antibodies. […] Mouse primary hepatocytes were cultured in DMEM medium plus 0.5% FBS for overnight in the presence or absence of insulin or Compound 7 or 8. Then the cells were harvested for mRNA isolation and gene expression analysis using real-time PCR. The mRNA levels of Foxo1 target genes were normalized with Ppia as an internal control. Data are presented as mean±SEM. *, P<0.05 for Compound 7 vs. DMSO; #, P<0.05 for INS+Compound 7 vs. INS alone.
FIG. 10 depicts the time course of pIR (Tyr 1162/63) level. Primary hepatocyte cells were starved overnight. Prior to insulin stimulation, the cells were preincubated with either vehicle DMSO, Compound 7, or Compound 8 for 1 hour. Then the cells were stimulated with 5 nM Insulin for 0, 5, 30, 60 min. Cell lysates were harvested for Western Blot, using anti-pIR (Tyr 1162/63) antibodies.
Mouse primary hepatocytes were isolated and cultured in DMEM medium with 0.5% FBS for 12 hours, and then were incubated with either vehicle DMSO, Compound 7 (100 nM), or Compound 8 (100 nM) for one hour. Phosphorylated IR, Gsk3β, and Foxo1 and the corresponding total proteins were analyzed by Western blots.
PTP-MEG2 inhibitor Compound 7 augments insulin signaling in cells. Given the excellent potency and selectivity of Compound 7 toward PTP-MEG2, we proceeded to evaluate its effect on PTP-MEG2-dependent signaling inside the cell. To assess the effects of Compound 7 on insulin signaling, we pretreated mouse primary hepatocytes with Compound 7 for 1 hour and then stimulated the cells with 5 nM insulin for 5 minutes. […] Remarkably, the phosphorylated form of IR was increased 50% and 100% at concentrations of 50 nM (1.5×Ki) and 100 nM of Compound 7, respectively (FIG. 4A and FIG. 8). […] Phosphorylation of Akt (Ser473) was increased by 3.1 and 4.5 fold; phosphorylation of GSK-3β (Ser9) was increased by 1.5 and 2.0 fold; and phosphorylation of Foxo1 (Ser253) was increased by 2.1 and 2.9 fold at 100 and 200 nM concentrations of Compound 7, respectively.
Western blot analysis. Cells were homogenized in the lysis buffer (50 mM Hepes, pH 7.5, 150 mM NaCl, 10% Glycerol, 1% Triton X-100, 1.5 mM MgCl2, 1 mM EGTA, 10 μM Sodium Pyrophosphate, 100 mM sodium fluoride and freshly added 100 μM sodium vanadate, 1 mM PMSF, 10 μg/ml Aprotinin, and 10 μg/mL Leupeptin). Protein extracts were resolved on an SDS-PAGE gel and transferred to nitrocellulose membrane. Proteins were probed using the following antibodies: IR(pY1162/63), IR (Santa Cruz Biotechnology), Akt(pS473), Aid, GSK3β(pS9), GSK3β, Foxo1(pS256), Foxo1, Erk1/2(pT202/Y204), Erk1/2 (Cell Signaling Technology). Protein signals were detected by incubation with HRP-conjugated secondary antibodies, followed by ECL detection reagent (Pierce). Western blots were scanned and quantified using the Quantity One software (Bio-Rad).
For orientation: In western blotting, separated proteins are transferred to a membrane and probed.

For series [2], the system named is diet-induced obese C57BL/6 mice. The series can be described thus: Glucose tolerance test in diet-induced obese mice. The conditions noted are these: 5 mg/kg i.p. twice a day. The method, then:
C57BL/6J mice were fed a high-fat diet for 10 weeks before Compound 7 or vehicle was injected intraperitoneally twice a day at a dose of 5 mg/kg body weight. FIG. 5A depicts insulin tolerance tests (ITT) performed on Day 7 by injecting intraperitoneally a bolus of 0.75 unit/kg of human regular insulin. […] FIG. 5C depicts glucose tolerance tests (GTT) carried out on Day 9 after a bolus of 1 g/kg glucose was injected intraperitoneally. […] FIG. 5E depicts pyruvate tolerance tests (PTT) performed on Day 12 after an injection of 2 g/kg pyruvate solution. […] At the end of 2-week injections of Compound 7, animals were fasted overnight and stimulated with a bolus of 1 unit of human regular insulin or saline via vena cava. Three minutes later, liver, skeletal muscle, and white adipose tissue (WAT) were collected sequentially for insulin signaling analysis. FIG. 5G depicts the phosphorylation of Tyr1162/1163 in insulin receptor (IR) and Ser473 phosphorylation in Akt kinases and the corresponding proteins in the liver, skeletal muscle, and white adipose tissue (WAT) were analyzed by immunoblots.
To this end, we intraperitoneally injected Compound 7 into diet-induced obese C57BL/6 mice at a dose of 5 mg/kg twice a day. […] After 7 days of injections, we performed insulin tolerance tests to measure insulin sensitivity in vehicle and Compound 7 treated mice.

FAP1, sequence (Q12923 whole entry, species assumed): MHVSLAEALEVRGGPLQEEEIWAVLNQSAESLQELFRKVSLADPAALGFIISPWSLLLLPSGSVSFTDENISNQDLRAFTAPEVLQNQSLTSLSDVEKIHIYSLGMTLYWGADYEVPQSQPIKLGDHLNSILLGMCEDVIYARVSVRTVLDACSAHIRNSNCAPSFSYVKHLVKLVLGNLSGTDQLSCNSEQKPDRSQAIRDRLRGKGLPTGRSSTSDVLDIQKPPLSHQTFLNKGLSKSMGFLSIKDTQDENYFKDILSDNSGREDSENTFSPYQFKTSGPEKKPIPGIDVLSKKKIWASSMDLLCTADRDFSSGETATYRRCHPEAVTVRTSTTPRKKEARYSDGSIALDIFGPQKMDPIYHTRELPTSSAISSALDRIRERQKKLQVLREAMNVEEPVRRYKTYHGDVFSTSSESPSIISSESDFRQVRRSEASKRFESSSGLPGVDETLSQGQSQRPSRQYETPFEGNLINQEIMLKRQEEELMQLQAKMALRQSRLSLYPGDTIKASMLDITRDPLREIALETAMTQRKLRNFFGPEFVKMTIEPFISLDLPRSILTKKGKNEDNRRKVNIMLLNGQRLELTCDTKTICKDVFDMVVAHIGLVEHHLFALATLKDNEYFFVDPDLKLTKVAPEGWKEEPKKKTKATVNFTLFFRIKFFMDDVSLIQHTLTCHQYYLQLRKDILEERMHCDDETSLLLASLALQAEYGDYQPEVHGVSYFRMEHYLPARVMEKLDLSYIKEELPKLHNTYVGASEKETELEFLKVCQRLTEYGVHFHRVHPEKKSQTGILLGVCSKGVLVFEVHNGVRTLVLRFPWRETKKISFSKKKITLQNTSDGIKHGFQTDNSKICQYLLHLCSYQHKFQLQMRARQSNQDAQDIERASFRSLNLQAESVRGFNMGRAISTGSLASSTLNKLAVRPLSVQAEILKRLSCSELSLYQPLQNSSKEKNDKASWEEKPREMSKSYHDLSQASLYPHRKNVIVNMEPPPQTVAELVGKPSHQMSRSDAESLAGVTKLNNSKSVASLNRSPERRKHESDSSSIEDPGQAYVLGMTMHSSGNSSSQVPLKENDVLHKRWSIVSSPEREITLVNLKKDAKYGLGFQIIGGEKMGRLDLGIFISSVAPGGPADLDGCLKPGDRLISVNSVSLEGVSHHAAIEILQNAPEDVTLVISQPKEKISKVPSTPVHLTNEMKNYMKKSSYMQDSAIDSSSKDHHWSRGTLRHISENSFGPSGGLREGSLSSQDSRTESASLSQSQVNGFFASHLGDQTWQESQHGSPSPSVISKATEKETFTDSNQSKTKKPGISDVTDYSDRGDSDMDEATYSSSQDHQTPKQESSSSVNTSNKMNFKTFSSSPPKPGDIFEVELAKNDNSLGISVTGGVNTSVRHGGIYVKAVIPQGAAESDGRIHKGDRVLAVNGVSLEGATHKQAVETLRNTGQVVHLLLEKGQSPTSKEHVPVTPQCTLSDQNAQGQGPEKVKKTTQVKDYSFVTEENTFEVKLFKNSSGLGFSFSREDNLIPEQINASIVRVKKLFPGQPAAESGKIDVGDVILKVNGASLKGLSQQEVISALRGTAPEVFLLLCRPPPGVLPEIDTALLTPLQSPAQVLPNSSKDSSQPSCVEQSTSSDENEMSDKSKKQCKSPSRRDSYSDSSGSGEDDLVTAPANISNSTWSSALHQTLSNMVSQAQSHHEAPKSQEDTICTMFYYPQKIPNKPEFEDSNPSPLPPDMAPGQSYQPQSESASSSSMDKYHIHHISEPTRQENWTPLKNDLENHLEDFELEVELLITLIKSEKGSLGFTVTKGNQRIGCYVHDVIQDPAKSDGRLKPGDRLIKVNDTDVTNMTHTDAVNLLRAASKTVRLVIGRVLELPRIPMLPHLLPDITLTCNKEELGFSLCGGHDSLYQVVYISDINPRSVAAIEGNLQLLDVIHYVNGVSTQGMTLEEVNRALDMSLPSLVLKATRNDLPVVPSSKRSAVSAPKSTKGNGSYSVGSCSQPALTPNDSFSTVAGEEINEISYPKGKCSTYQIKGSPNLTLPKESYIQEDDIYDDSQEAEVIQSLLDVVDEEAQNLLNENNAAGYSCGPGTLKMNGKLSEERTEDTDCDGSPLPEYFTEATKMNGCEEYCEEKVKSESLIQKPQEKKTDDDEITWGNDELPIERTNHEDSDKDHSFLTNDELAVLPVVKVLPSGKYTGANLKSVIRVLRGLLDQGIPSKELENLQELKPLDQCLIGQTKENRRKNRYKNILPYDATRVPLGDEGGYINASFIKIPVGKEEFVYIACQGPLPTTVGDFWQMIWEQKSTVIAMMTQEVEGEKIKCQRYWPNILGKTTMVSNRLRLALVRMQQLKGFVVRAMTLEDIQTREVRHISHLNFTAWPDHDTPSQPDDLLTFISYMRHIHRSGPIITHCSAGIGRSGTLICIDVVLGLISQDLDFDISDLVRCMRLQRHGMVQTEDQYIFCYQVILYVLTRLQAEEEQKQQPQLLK

As to `COc1cc(CC(=O)NCC(NC(=O)C(CCCNC(=O)c2cccc(I)c2)NC(=O)C(Cc2ccc(C(F)(F)P(=O)(O)O)cc2)NC(=O)c2ccc(C)c(Br)c2)C(N)=O)ccc1O` (centres unmarked) [Compound 7], the IC50 (as a rule, the concentration needed to halve the response being measured) against FAP1 is over 10000 nM. The “increase of phosphorylated IR (Tyr1162/1163)” value in series [1] (50 nM compound) was 50%. In series [1] (100 nM compound, 5 nM insulin), the “increase of Akt (Ser473) phosphorylation” value is given as 3.1 fold, the “increase of Foxo1 (Ser253) phosphorylation” value is listed as 2.1 fold and the “increase of GSK-3β (Ser9) phosphorylation” value turned out to be 1.5 fold. In series [1] (100 nM compound), the “increase of phosphorylated IR (Tyr1162/1163)” value was determined as 100%. For the same compound, the “insulin signaling pathway under basal conditions” value in series [1] (100 nM, one hour, no insulin) was “enhanced”. For the same compound, in series [1] (200 nM compound, 5 nM insulin), the “increase of Akt (Ser473) phosphorylation” value turned out to be 4.5 fold, the “increase of Foxo1 (Ser253) phosphorylation” value is 2.9 fold and the “increase of GSK-3β (Ser9) phosphorylation” value is listed as 2.0 fold. Besides, the Erk1/2 activation entry in series [1] (insulin-stimulated hepatocytes) is “strongly enhanced”. In addition, in series [1] (no insulin, 100 nM, 1 hour), the “increase of basal phosphorylation of Foxo1” value was found to be 2.2 fold, the “increase of basal phosphorylation of GSK-3β” value stood at 2.0 fold and the “increase of basal phosphorylation of IR” value was determined as 2.1 fold. For the same compound, the “duration of potentiation of insulin stimulated IR phosphorylation” value in series [1] (time course 0, 5, 30, 60 min, 5 nM insulin) was “at least 1 hour”. The “glucose clearance in glucose tolerance test” value in series [2] (Day 9, at 15, 30, and 60 minutes) is “significantly enhanced glucose clearance”. The “improvement in glucose disposal (AUC)” value in series [2] (Day 9, vs vehicle) amounted to 21%.
